Data set [1] relates to barley. In words: Hydroponic barley grown with C12 in the water medium: grain composition. As to conditions: 10 g C12/L of water (10% C12). As for the experimental part: (§1) Hydroponic barley and oat grass was growth in fodder sprouting chambers at 21.5 to 23.5° C., with humidity of 65±5% and water temperature between 20° and 22° C. Grains were soaked in water until fully saturated, then drained and placed in trays or troughs, to facilitate sprouting, for 5 to 8 days. The grains were kept moist during this period. Grains were initially washed with a sterilizing solution to help minimize the risk of mold. Grass were provided with […] from day 3. C12 (0.1% as acid, 14.9% as potassium salt, 60% as sodium salt, and 25% as calcium salt) was added to the water medium in different concentrations, varying from 0%, to 2.5%, 5%, 10%, 15% and 20%. We measured grain composition at 10 g C12 in 1 L of water.

The test system of data set [2] is oat. In words: Hydroponic oat grown with C12 in the water medium: grain composition. As to conditions: 10 g C12/L of water (10% C12). As for the experimental part:
as §1

In data set [3] the test system is Hy-Line Brown laying hens. In words: Laying hens fed a standard diet or a diet enriched with C12 (10%): egg productivity, egg quality, yolk cholesterol. Format: in vivo. The text has this:
Thirty Hy-Line Brown laying hens, 18 weeks of age, were free range-raised under natural light and dark cycle. The hens were divided into 2 groups and housed in different indoor pens (0.15 m^2/bird) equipped with feeders and drinkers, with access to open air runs (3 m^2/bird).
The diets were based on wheat and soybean meal with added dodecanedioic acid (C12) at 10% in the DAs diet, while they were free of dodecanedioic acid in the control diet. The diets were isocaloric and isonitrogenous containing 17.0% of crude protein (CP) and 2,680 kcal of metabolizable energy/kg of diet, in fact they were designed to meet or exceed the nutrient requirements for laying hens. The experimental diet was fed to the animals for 12 weeks. Feed and water were provided ad libitum throughout the entire trial.
Hens mortality or morbidity were recorded if occurred. Eggs were collected daily and egg production was calculated on per hen and per day basis. Eggs with any adhering manure were classified as dirty, and the percentage was then calculated.
Eggs were analyzed for interior and exterior physical quality, and were also examined for shell quality by specific gravity. Shell thickness (with shell membrane) of the eggs (10% of the daily egg produced) was measured by micrometer. Shell thickness was a mean value of measurements at 3 locations on the eggs (air cell; equator; and, sharp end). The breaking strength of untracked eggs was determined with a testing machine (model 1140, Instron Ltd., Bucks, UK). Egg components (albumen; yolk; and, shell) were measured by weekly breakouts on two eggs per replicate pen and expressed as percentage of egg weight.
Egg yolk color was scored using the 15-point scale (color scale from 15, dark orange to 1, light pale) of the DSM yolk color fan (DSM Nutritional Products Ltd., Basel, Switzerland).
The yolk cholesterol concentrations were determined by sampling weekly egg yolks (1 g) saponified with 20 ml of 33% ethanolic KOH in tightly-capped tubes placed in a 60° C. water bath for 1 hour. The mixture was then cooled in ice water, and 5 ml of distilled water was added. Cholesterol in unsaponifiable fractions was extracted twice with 5 ml of hexane. The resulting aliquot of hexane containing cholesterol was dried under nitrogen, re-dissolved in 5 ml of hexane, and injected into a gas chromatograph (Hewlett Packard, Palo Alto, Calif., Palo Alto, Calif., USA).
5 α-cholestane (Sigma-Aldrich) was used as an internal standard. A split inlet (using a split ratio of 100:1) was used to inject samples into a capillary column (HP-5, Agilent, Steven, Calif., USA; 30 m×0.53 mm×0.5 μm). Temperature conditions were as follows: […] oven temperature of 270° C. isothermal; detector temperature of 300° C.; and, inlet temperature of 210° C. The gas carrier was N2 kept at a constant flow rate of 1.0 ml/min.
Data were analyzed using the statistical package SPSS 13. Comparisons were made by the Mann Whitney U test since data were not normally distributed.

The structures appear in SMILES notation.

For `O=C(O)CCCCCCCCCCC(=O)O` [C12, dodecanedioic acid], in data set [1], the Ash % was determined as 3.40 ± 0.48%, the “Crude Fibre %” value was determined as 4.42 ± 0.38%, the “Crude Protein %” value worked out at 16.20 ± 0.62% and the “Dry matter (%)” value was determined as 90.40 ± 1.14%. The Starch % in data set [1] amounted to 44.40 ± 3.51%. Besides, in data set [2], the Ash % came out at 4.06 ± 0.59%, the “Crude Fibre %” value is reported as 23.40 ± 4.04%, the “Crude Protein %” value was 18.70 ± 2.28% and the “Dry matter (%)” value is given as 90.00 ± 5.70%. This compound also had a Starch % in data set [2] of 31.80 ± 8.11%. The Yolk color entry in data set [3] (10% C12 enriched diet vs standard diet) is given as “lighter color of the yolk”. In data set [3] (12 weeks of feeding), the “Hen mortality or morbidity” value is reported as “No hen mortality or morbidity was observed”. In data set [3] (diet with 10% C12 for 12 weeks), the “Dirty eggs (%)” value was 0.38 ± 0.14%, the “Egg mass (g/hen per day)” value is given as 54.56 ± 5.66 g/hen per day and the “Egg-laying rate (%)” value stood at 90.30 ± 4.99%. Besides, the Cholesterol content in data set [3] (diet with 10% C12 for 12 weeks, egg yolk, gas chromatography, FIG. 3: per 100 g of egg, in mg/100 g egg) turned out to be 87.00 ± 14.27. In addition, the “Shell thickness (mm × 10^−2)” value in data set [3] (diet with 10% C12 for 12 weeks, mean of 3 locations, with shell membrane) is 0.38 ± 0.037 mm × 10^−2. Also, in data set [3] (female, Hy-Line Brown, hen (chicken), in vivo, 12 weeks), the “content of C12 in a yolk” value is “in a yolk ranged between 0.35 and 2.1 mg”.

The values above are taken from US20210038547A1, “NEW USES AND APPLICATIONS OF DICARBOXYLIC ACIDS” (JEMYLL LIMITED, priority 2017, published 2021).
